In BindingDB's records for PubMed 8996185 (SynthÉLabo Recherche, 1997):
Where “and” joins values, the source holds several entries; their conditions need not be identical. Equal entries are not always repeated. Structures can show the parent of a compound that is named as a salt.

Columns and labels:
[1] = biological target: Gamma-aminobutyric acid type B receptor subunit 1 (UniProt Q9Z0U4)
[2] = biological target: T1, Glycine receptor subunit alpha-1 (Rattus norvegicus, UniProt P07727)
T1 sequence (P07727 whole entry): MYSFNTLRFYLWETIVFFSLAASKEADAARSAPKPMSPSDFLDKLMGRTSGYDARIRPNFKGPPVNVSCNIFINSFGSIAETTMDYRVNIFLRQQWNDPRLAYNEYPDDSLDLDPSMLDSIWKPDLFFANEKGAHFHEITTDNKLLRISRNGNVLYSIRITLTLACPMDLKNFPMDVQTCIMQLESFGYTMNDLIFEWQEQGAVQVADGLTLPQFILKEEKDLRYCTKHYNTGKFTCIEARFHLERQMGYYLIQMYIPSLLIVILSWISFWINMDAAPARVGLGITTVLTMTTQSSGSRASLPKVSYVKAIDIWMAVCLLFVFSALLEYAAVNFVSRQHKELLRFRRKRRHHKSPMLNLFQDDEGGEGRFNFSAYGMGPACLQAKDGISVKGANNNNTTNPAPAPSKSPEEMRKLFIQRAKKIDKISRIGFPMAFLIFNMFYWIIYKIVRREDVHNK

[3] = biological target: 5-hydroxytryptamine receptor 3A (Rattus norvegicus, UniProt P35563)
[4] = biological target: Glutamate receptor 3 (Rattus norvegicus, UniProt P19492)
Chain of Glutamate receptor 3 (P19492 whole entry): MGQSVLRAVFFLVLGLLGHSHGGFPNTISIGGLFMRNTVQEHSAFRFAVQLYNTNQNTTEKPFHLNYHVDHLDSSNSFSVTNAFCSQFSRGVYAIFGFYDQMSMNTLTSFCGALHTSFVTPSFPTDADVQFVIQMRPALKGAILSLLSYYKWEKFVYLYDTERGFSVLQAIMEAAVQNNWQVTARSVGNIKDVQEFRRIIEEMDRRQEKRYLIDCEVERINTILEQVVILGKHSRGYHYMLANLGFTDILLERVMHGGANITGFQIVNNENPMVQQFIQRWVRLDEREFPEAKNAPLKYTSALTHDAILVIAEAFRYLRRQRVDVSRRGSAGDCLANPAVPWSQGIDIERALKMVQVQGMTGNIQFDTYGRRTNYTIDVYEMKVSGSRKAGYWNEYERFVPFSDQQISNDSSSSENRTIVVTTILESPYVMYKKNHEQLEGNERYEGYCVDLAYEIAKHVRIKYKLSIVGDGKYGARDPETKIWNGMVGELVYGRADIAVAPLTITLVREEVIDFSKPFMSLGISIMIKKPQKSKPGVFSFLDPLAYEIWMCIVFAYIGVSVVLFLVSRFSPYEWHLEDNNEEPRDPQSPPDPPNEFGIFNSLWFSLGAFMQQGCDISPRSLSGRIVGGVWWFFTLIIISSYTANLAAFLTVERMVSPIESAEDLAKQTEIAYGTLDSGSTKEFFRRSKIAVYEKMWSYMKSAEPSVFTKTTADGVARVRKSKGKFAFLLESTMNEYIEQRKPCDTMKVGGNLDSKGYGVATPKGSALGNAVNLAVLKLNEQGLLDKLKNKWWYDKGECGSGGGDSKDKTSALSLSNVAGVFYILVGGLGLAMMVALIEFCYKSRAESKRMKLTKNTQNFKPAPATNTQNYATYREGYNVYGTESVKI

[5] = biological target: 5-hydroxytryptamine receptor 4 (Cavia porcellus, UniProt O70528)
Chain of 5-hydroxytryptamine receptor 4 (O70528 whole entry): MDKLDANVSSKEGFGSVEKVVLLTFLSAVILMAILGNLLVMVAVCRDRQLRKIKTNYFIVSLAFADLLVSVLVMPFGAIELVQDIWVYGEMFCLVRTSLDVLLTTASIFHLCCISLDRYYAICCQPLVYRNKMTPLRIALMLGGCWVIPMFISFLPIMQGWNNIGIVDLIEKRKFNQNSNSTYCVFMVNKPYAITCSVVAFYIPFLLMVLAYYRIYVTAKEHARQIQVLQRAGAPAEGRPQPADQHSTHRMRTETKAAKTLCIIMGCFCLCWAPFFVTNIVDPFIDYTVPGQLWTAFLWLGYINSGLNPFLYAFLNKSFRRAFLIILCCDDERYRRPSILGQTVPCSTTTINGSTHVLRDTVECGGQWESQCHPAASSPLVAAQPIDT

[6] = biological target: T2, Type-2 angiotensin II receptor (Rattus norvegicus, UniProt P35351)
T2 sequence (P35351 whole entry): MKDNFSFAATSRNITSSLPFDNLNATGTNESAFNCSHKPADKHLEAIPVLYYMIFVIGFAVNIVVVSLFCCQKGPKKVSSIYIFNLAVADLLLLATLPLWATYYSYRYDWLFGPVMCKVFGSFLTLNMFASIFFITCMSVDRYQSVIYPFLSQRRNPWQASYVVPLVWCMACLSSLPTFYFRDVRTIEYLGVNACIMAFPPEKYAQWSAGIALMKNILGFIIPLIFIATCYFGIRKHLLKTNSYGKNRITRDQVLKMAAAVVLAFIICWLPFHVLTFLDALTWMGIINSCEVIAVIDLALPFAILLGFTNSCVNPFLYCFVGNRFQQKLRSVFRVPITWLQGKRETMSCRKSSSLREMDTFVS

[7] = biological target: T3, Type-1 angiotensin II receptor (Oryctolagus cuniculus, UniProt P34976)
T3 sequence (P34976 whole entry): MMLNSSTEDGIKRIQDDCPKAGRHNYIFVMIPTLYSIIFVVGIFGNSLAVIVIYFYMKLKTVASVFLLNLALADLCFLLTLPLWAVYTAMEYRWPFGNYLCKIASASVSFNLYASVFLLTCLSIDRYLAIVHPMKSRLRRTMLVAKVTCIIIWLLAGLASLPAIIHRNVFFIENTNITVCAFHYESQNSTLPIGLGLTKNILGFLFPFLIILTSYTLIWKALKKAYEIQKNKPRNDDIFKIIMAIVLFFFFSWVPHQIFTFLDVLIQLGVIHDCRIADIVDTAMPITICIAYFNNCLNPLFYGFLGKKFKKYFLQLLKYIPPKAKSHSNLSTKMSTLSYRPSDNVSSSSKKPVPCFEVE

[8] = biological target: T4, Adenosine receptor A1 (Rattus norvegicus, UniProt P25099)
T4 sequence (P25099 whole entry): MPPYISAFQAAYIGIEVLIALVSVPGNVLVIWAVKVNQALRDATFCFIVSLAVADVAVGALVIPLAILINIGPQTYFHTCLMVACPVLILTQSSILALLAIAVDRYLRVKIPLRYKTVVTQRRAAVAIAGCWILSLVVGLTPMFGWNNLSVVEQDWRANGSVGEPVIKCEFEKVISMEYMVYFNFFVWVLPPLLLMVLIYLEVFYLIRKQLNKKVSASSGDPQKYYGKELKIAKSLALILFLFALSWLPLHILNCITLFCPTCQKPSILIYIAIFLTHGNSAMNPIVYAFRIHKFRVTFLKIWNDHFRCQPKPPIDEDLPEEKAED

[9] = biological target: Adenosine receptor A2a (Rattus norvegicus, UniProt P30543)
Chain of Adenosine receptor A2a (P30543 whole entry): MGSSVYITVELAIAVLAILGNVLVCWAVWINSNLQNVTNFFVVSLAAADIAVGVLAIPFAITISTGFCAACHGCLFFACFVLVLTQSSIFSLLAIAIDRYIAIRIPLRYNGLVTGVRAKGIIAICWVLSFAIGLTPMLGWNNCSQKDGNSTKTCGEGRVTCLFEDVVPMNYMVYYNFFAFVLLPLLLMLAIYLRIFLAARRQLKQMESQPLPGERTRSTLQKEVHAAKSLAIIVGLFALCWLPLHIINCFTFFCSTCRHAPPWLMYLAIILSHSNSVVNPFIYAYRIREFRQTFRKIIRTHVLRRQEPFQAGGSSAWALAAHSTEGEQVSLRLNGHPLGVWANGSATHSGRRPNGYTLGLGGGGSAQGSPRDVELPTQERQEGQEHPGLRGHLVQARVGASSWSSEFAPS

[10] = biological target: Glutamate receptor ionotropic, kainate 1 (Rattus norvegicus, UniProt P22756)
Chain of Glutamate receptor ionotropic, kainate 1 (P22756 whole entry): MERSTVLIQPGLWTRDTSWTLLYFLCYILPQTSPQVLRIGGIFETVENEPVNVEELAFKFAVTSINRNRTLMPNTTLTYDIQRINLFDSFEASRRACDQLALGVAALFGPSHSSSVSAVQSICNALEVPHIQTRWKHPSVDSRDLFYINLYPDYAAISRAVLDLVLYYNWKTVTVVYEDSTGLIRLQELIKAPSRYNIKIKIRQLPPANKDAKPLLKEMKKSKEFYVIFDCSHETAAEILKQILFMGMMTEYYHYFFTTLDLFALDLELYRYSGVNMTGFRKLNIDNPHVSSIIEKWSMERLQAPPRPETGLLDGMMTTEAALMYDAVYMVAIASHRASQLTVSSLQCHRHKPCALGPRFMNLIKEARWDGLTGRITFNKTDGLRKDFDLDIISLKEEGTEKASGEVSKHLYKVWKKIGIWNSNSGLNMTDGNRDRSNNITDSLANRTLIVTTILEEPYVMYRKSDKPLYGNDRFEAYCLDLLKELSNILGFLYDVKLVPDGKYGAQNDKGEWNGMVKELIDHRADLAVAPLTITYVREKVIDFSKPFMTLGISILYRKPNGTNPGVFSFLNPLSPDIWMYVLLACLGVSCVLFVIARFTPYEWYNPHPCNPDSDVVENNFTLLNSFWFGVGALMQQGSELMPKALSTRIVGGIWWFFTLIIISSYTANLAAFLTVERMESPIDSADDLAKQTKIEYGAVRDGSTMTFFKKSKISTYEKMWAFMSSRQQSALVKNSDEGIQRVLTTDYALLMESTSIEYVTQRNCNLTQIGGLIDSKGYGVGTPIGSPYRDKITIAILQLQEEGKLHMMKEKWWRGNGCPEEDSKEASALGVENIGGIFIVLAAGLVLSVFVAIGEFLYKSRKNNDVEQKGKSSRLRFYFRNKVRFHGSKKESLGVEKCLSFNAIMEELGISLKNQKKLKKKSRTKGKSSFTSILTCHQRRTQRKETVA

[11] = biological target: Nischarin (Rattus norvegicus, UniProt Q4G017)
Chain of Nischarin (Q4G017 whole entry): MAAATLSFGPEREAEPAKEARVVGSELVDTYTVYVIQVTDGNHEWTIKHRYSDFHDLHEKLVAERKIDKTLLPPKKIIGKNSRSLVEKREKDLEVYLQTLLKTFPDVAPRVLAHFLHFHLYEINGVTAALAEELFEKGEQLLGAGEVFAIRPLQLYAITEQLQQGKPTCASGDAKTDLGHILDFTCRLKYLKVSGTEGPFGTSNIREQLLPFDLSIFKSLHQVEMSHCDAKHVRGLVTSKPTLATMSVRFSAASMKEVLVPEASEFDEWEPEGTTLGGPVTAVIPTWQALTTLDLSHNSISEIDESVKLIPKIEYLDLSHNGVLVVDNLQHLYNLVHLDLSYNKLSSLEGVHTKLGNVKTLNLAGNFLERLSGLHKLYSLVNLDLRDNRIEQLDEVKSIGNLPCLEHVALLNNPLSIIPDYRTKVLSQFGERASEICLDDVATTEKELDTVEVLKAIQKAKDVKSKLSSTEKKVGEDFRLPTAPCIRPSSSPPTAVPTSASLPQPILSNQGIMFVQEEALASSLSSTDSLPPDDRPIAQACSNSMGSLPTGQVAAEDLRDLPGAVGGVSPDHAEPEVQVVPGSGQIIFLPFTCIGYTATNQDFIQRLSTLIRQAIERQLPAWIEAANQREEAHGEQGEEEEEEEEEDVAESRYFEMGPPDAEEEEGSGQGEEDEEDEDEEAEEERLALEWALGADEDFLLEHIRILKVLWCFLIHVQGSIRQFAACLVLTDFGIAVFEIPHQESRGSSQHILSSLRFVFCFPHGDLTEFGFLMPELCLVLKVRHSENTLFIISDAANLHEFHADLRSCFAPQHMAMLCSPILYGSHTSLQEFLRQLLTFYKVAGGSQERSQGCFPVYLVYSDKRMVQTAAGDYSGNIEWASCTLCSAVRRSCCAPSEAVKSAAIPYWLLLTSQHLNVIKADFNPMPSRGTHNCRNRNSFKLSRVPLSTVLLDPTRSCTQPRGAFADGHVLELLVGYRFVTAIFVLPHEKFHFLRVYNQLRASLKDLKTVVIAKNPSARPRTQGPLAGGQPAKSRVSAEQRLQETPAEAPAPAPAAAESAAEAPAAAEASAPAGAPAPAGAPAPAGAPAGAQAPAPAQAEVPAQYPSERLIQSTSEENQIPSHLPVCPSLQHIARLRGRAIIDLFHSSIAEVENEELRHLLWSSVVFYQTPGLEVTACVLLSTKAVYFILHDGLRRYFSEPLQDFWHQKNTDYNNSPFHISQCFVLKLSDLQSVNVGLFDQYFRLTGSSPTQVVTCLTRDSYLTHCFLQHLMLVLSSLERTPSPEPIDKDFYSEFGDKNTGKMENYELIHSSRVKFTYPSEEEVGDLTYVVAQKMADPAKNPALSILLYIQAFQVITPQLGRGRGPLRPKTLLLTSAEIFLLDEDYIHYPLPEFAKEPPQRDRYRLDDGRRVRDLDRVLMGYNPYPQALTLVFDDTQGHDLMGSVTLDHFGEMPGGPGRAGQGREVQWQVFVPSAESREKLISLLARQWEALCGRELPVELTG

[12] = biological target: T5, Glycine amidinotransferase, mitochondrial (Rattus norvegicus, UniProt P50442)
T5 sequence (P50442 whole entry): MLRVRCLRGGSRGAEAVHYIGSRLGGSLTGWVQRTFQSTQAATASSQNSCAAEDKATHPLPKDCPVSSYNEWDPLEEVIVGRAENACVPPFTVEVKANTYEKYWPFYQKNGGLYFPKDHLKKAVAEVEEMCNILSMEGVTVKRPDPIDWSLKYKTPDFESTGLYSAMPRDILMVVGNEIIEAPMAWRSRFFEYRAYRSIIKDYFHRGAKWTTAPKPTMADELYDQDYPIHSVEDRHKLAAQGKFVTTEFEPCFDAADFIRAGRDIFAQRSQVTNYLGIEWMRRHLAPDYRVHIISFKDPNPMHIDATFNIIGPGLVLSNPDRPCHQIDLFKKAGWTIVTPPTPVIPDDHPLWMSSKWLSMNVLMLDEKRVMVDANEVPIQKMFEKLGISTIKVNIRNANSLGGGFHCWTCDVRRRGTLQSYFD

[13] = biological target: Beta-2 adrenergic receptor (Rattus norvegicus, UniProt P10608)
Chain of Beta-2 adrenergic receptor (P10608 whole entry): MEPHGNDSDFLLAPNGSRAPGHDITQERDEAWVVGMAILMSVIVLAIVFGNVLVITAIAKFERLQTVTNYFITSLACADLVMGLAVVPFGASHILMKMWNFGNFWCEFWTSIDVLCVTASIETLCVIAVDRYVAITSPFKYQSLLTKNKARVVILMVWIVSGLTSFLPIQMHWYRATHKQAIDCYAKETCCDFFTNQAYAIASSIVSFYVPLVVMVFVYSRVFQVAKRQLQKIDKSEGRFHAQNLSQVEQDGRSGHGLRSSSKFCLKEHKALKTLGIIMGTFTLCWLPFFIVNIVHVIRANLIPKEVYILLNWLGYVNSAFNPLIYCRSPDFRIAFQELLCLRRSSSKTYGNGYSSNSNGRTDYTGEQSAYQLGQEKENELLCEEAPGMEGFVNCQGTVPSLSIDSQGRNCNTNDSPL

[14] = biological target: Sigma non-opioid intracellular receptor 1 (Mus musculus, UniProt O55242)
Chain of Sigma non-opioid intracellular receptor 1 (O55242 whole entry): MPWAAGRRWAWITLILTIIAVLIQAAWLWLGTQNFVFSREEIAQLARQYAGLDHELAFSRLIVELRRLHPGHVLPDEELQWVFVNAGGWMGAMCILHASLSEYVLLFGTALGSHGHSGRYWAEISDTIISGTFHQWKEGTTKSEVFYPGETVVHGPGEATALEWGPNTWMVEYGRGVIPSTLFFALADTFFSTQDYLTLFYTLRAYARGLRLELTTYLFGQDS

[15] = biological target: Glutamate receptor ionotropic, NMDA 1 (Rattus norvegicus, UniProt P35439)
[16] = biological target: Voltage-dependent L-type calcium channel subunit alpha-1C (Rattus norvegicus, UniProt P22002)
[17] = biological target: D(3) dopamine receptor (Bos taurus, UniProt F1N454)
[18] = biological target: 5-hydroxytryptamine receptor 2A (Rattus norvegicus, UniProt P14842)
[19] = biological target: Gamma-aminobutyric acid receptor subunit alpha-1 (Rattus norvegicus, UniProt P62813)
[20] = biological target: Sodium-dependent dopamine transporter (Rattus norvegicus, UniProt P23977)
[21] = biological target: 5-hydroxytryptamine receptor 1B (Rattus norvegicus, UniProt P28564)
[22] = biological target: Muscarinic acetylcholine receptor M2 (Rattus norvegicus, UniProt P10980)
[23] = biological target: D(2) dopamine receptor (Rattus norvegicus, UniProt P61169)
[24] = biological target: Alpha-2C adrenergic receptor (Rattus norvegicus, UniProt P22086)
[25] = biological target: 5-hydroxytryptamine receptor 2C (Sus scrofa, UniProt G7ZKZ7)
[26] = biological target: Gamma-aminobutyric acid (GABA) B receptor 1 (Rattus norvegicus, UniProt Q6MFX8)
[27] = biological target: Histamine H1 receptor (Cavia porcellus, UniProt P31389)
[28] = biological target: Sodium channel protein type 10 subunit alpha (Rattus norvegicus, UniProt Q62968)
[29] = biological target: Alpha-1B adrenergic receptor (Rattus norvegicus, UniProt P15823)
[30] = biological target: 5-hydroxytryptamine 1D receptor (Bos taurus, UniProt Q8MI13)
Chain of 5-hydroxytryptamine 1D receptor (Q8MI13 whole entry): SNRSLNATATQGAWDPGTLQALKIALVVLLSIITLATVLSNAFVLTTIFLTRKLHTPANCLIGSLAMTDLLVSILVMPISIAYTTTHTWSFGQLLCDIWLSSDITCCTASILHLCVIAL

[31] = biological target: 5-hydroxytryptamine receptor 1A (Rattus norvegicus, UniProt P19327)

Ki [1] [µM] | Ki [2] [µM] | Ki [3] [µM] | Ki [4] [µM] | Ki [5] [µM] | Ki [6] [µM] | Ki [7] [µM] | Ki [8] [µM] | Ki [9] [µM] | Ki [10] [µM] | Ki [11] [µM] | Ki [12] [µM] | Ki [13] [µM] | Ki [14] [µM] | Ki [15] | Ki [16] [µM] | Ki [17] [µM] | Structure (SMILES) | also measured
> 10 | > 10 | > 10 | > 10 | > 10 | > 10 | > 10 | > 10 | > 10 | > 10 | > 10 | > 10 | > 10 | – | – | – | – | O=C(CCCN1CCC(O)(c2ccc(Cl)cc2)CC1)c1ccc(F)cc1 [4-[4-(4-Chloro-phenyl)-4-hydroxy-piperidin-1-yl]-1-(4-fluoro-phenyl)-butan-1-one;propionate(HCl)] | –
> 10 | > 10 | – | > 10 | > 10 | > 10 | > 10 | > 10 | > 10 | > 10 | > 10 | > 10 | > 10 | 6.4 | > 10 µM and 5 µM | > 10 | 0.88 | CN1CCN(C2=c3ccccc3=Nc3ccc(Cl)cc3N2)CC1 [6-chloro-10-(4-methylpiperazin-1-yl)-2,9-diazatricyclo[9.4.0.0^{3,8}]pentadeca-1,3(8),4,6,10,12,14-heptaene] | –
– | > 10 | > 10 | > 10 | > 10 | > 10 | > 10 | > 10 | > 10 | > 10 | > 10 | > 10 | > 10 | > 10 | > 10 µM | > 10 | 0.0029 | CCN1CCCC1CNC(=O)c1cc(S(=O)(=O)CC)c(N)cc1OC (centres undefined) [NSC_2159] | Ki [18]: 2 µM; Ki [19]: > 10 µM; Ki [20]: > 10 µM; Ki [21]: > 10 µM; Ki [22]: > 10 µM; Ki [23]: 0.021 µM; Ki [24]: 1.6 µM; Ki [25]: > 10 µM; Ki [26]: > 10 µM; Ki [27]: > 10 µM; Ki [28]: > 10 µM; Ki [29]: > 10 µM; Ki [30]: > 10 µM; Ki [31]: > 10 µM
